Where two headings read alike, the source gives them in different places. Where no end group is shown, it is not given here. [ ]: non-standard residue; d: D form. pY = N[C@@H](Cc1ccc(OP(=O)(O)O)cc1)C(=O)O
Legend:
[1] = target: T1, N-terminal SH2 domain of SHP-2 (Homo sapiens, UniProt Q06124); experiment: SPR (BIAcore 3000), single N-terminal SH2 domain of SHP-2; assay type: binding; conditions: HBS pH 7.4, 37°C, 10 µl/min
T1 construct: SHP-2 (N)SH2 (His-tag) (OMC #3912); His-tag; host or cells: E. coli BL21(DE3)
T1 sequence (Q06124 6-102 limits assumed): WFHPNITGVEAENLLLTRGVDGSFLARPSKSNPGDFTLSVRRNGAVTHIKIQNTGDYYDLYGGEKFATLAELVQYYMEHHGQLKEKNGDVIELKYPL
Protocol: (§1) These proteins were expressed in BL21(DE3) cells (Invitrogen) induced with 1 mM IPTG for 4 hours at 37°C. Bacteria were pelleted and washed in PBS/0.5 M NaCl prior to sonication in PBS/0.5 M NaCl, in the presence of protease inhibitor cocktail (Complete, EDTA-free, Roche). Soluble and insoluble fractions were separated by centrifugation at 30,000 g for 60 minutes. Soluble fractions containing tagged proteins were incubated for 1 hour at 4°C with end-over-end mixing in the presence of washed Ni-Sepharose (GE Lifesceinces, Little Chalfont, U.K.) supplemented with 40 mM imidazole or Amylose resin (NEB, Herts, U.K). Proteins were eluted according to the manufacturer's instructions and purified by size exclusion chromatography on an AKTApurifier (GE Lifesciences, Little Chalfont, U.K).
Experiments were conducted on a BIAcore™ 3000 in HBS buffer (0.01 M HEPES, pH 7.4, containing 0.15 M NaCl, 3 mM EDTA, and 0.005% v/v P-20, GE Life Sciences, Amersham, UK). Streptavidin was coupled to a research grade CM5 chip (GE Life Sciences, Amersham, UK) as previously described, [13]. Protein-peptide interactions were carried out a rate of 10 µl/min at a constant temperature of 37°C to more accurately reflect physiological conditions. Biotinylated peptides were bound to the streptavidin-coated CM5 chips at 37°C to between 25–50 RU [14]. Purified monomeric SH2 domains were passed over the immobilised peptides at a range of concentrations. Anti-phosphotyrosine monoclonal antibody (Sigma, Poole, U.K.) was passed over the chip to saturation at the end of each experiment to verify peptide coverage on the chip. Binding affinities for the single ITIM/ITSM peptides were determined by plotting equilibrium binding measurements (RU) against SH2 domain protein concentration (Origin 8, OriginLab, MA, USA). KD was defined as the concentration of SH2 protein that gave half maximal binding to the peptide. […] KD was determined as Koff/Kon, which were determined using both GraphPad Prism 5.0 (GraphPad, La Jolla, CA, USA) and BIAevaluation Software (GE Life Sciences, Amersham,UK).

[2] = tested on: G6B-b tyrosine phosphorylation; experiment: G6B-b tyrosine phosphorylation in washed human platelets (4G10 staining); assay type: cell-based; conditions: for G6B-b tyrosine phosphorylation: 1 µg/ml CRP, 5 minutes, 4G10 staining, n = 4; for state of G6B-b phosphorylation: PP2 5 µM, PP3 5 µM or pervanadate, 10 minutes
Protocol: One microgram of antibody was bound to 10 µl of Protein A-sepharose (20 µl of a 50% slurry), in a final volume of 100 µl PBS, by incubation on a rotating wheel for 90 minutes at 4°C. Washed human platelets were incubated with either Tyrodes, 5 µM PP2, 5 µM PP3 or pervanadate for 10 minutes, after which they were pelleted and lysed in DP lysis buffer (20 mM Tris pH 7.5, 150 mM NaCl, 5 mM NaOV4, 1× Complete Protease Inhibitor (Roche) and 5% w/v n-Dodecyl-β-D-maltoside (Calbiochem)) such that each IP sample received 4×10^8 platelets in a final volume of 100 µl DP lysis buffer. Samples were mixed on a rotating wheel at 4°C for 1 hour. Samples were washed once in 200 µl DP lysis buffer and twice in 1 ml PBS prior to boiling in Laemmli buffer for 5 minutes.
We wanted to determine whether SHP-2 could associate with the receptor in human platelets as this interaction could relate to receptor function and regulation of GPVI signalling. […] In the absence of receptor agonists, we carried out co-immunoprecipitation experiments in platelet lysates treated with the SFK inhibitor, PP2, its non-active analogue, PP3, or the tyrosine phosphatase inhibitor, pervanadate. […] Under these conditions, isolation of […] by immunoprecipitation was robust (Figure 1B, top panel).
(A) Washed human platelets were incubated under stirring, but non-aggregating, conditions with the SFK inhibitor, PP2, or DMSO, prior to the addition of 1 µg/ml CRP or Tyrodes buffer. Samples were collected after 5 minutes. Tyrosine phosphorylation was detected by 4G10 staining (top panel, n = 4). […] (B) G6B-b co-immunoprecipitates with […] in pervanadate-treated washed human platelets.

[3] = tested on: G6B-b dual phosphopeptide; experiment: SPR (BIAcore 3000) of SHP-1/SHP-2 tandem SH2 domains over immobilised G6B-b phosphopeptide; assay type: binding, human; conditions: for Koff / Kd: HBS pH 7.4, 37°C, 50 µl/min; for Koff: Prism 5; for Kd: KD = Koff/Kon
Protocol: Experiments were conducted on a BIAcore™ 3000 in HBS buffer (0.01 M HEPES, pH 7.4, containing 0.15 M NaCl, 3 mM EDTA, and 0.005% v/v P-20, GE Life Sciences, Amersham, UK). Streptavidin was coupled to a research grade CM5 chip (GE Life Sciences, Amersham, UK) as previously described, [13]. Protein-peptide interactions were carried out a rate of 10 µl/min at a constant temperature of 37°C to more accurately reflect physiological conditions. Biotinylated peptides were bound to the streptavidin-coated CM5 chips at 37°C to between 25–50 RU [14]. Purified monomeric SH2 domains were passed over the immobilised peptides at a range of concentrations. Anti-phosphotyrosine monoclonal antibody (Sigma, Poole, U.K.) was passed over the chip to saturation at the end of each experiment to verify peptide coverage on the chip. Binding affinities for the single ITIM/ITSM peptides were determined by plotting equilibrium binding measurements (RU) against SH2 domain protein concentration (Origin 8, OriginLab, MA, USA). KD was defined as the concentration of SH2 protein that gave half maximal binding to the peptide. For the 60-mer peptides, SH2 domains were passed over the chip surface at 50 µl/min. KD was determined as Koff/Kon, which were determined using both GraphPad Prism 5.0 (GraphPad, La Jolla, CA, USA) and BIAevaluation Software (GE Life Sciences, Amersham,UK).
Previous studies have shown that using single phosphomotifs (isolated from sequences in which they may exist in tandem) and single SH2 domains can be misleading, [16]. We, therefore, assessed phosphatase-G6B-b interactions in more detail using the tandem SH2 domains of both SHP-2 (Figure 4A) and SHP-1 (Figure 4B). We kinetically determined the binding affinity (KD = koff/kon) by SPR at physiological temperatures.

endogenous G6B-b = experiment: Pull down of endogenous G6B-b from platelet lysate with purified SH2 domains; assay type: binding; conditions: washed human platelet lysates activated with CRP or thrombin
Protocol: as §1, with “Proteins were eluted according to the manufacturer's instructions and purified by size exclusion chromatography on an AKTApurifier (GE Lifesciences, Little Chalfont, U.K).” left out
Based on this study, the N-terminal SH2 domains of both SHP-1 and SHP-2 should preferentially bind to the ITIM (central pY at position 211) while the C-terminal domains should associate with the ITSM (pY at position 237). […] The N-terminal SH2 domain of SHP-1 was insoluble and it was not possible to purify sufficient quantities for binding studies. […]
(A) Peptide associated material was isolated from pre-cleared lysates separated on 4–12% NuPage Bis-Tris gels; proteins identified by Western Blotting (representative blots, n = 3). […] Bound material was separated from unbound material by SDS-PAGE and quantified (n = 3, SEM, ** denotes p<0.01, * denotes p<0.05). […]

[4] = tested on: washed human platelets (collagen); experiment: Light transmission aggregometry of TAT-peptide-loaded platelets, collagen; assay type: cell-based; conditions: vehicle (DMSO) control; light transmission aggregometry
Protocol: (§2) Whole blood was taken from healthy volunteers and collected into 50 ml syringes containing 5 ml acid citrate-dextrose (ACD) in accordance with procedures approved by the Local Research Ethics Committee (Ref: 07/Q1603/17). Platelet-rich plasma (PRP) was isolated by centrifugation at 200 g for 10 minutes at room temperature. PRP was pooled and 10 µg PGI2 was added before centrifugation at 1000 g for 10 minutes at room temperature. Platelets were resuspended in 1 ml Tyrodes buffer (134 mM NaCl, 0.34 mM Na2HPO4, 2.9 mM KCl, 12 mM NaHCO3, 20 mM HEPES, 5 mM glucose, 1 mM MgCl2, pH 7.3) pre-warmed to 30°C and 150 µl ACD. The volume was adjusted to 25 ml with Tyrodes buffer, followed by 3 ml ACD and 1.25 µg PGI2. Cells were centrifuged at 1000 g for 10 minutes at room temperature and the resultant cell pellet was resuspended in 1 ml pre-warmed Tyrodes buffer before adjusting the volume to a final cell density of 4×10^8 cells/ml (aggregations) or 2×10^9 cells/ml (peptide pull downs). Where appropriate, 1 mM EGTA, 10 µM indomethacin and 2 U/ml apyrase were added to inhibit aggregations (referred to as non-aggregating conditions).
(§3) Fluorescein-labelled, TAT-G6B-b peptides were synthesised by Peptide Protein Research Ltd (Hampshire, U.K.). Peptides were either unphosphorylated, or phosphorylated at both ITIMs as follows: Dual phosphorylated peptide – FLUO- […]*[…]*AVVV or unphosphorylated control peptide (lacking tyrosine phosphorylation) - FLUO- […]. TAT sequences are underlined and phosphorylated tyrosines marked with an asterisk. Peptides were loaded into washed platelets by incubation with 10 µM peptide for 15 minutes at 30°C, after which they were assessed by light transmission aggregometry. Peptide loading conditions were optimised and verified by flow cytometry.
(§4) Washed human platelets were loaded with TAT-G6B-b peptides (either dual phosphorylated or unphosphorylated) and changes in CRP efficacy determined by light transmission aggregometry. […] Thrombin-mediated activation was unaffected (data not shown). […] Peptide loading was verified by flow cytometry (Figure 9C and 9D.

[5] = tested on: washed human platelets (CRP); experiment: Light transmission aggregometry of TAT-peptide-loaded platelets, CRP; assay type: cell-based; conditions: vehicle (DMSO) control; light transmission aggregometry
Protocol: as §2, §3, §4

## PLVKTEPQRPVKEEEPKIPGDLDQEPSLLYADLDHLALSRPRRLSTADPADASTI[pY]AVVV [pY237]
[1]; read-out: KD, estimated by fixing maximum binding
  Kd: 10000 nM

## CC(C)(C)n1nc(-c2ccc(Cl)cc2)c2c(N)ncnc21 [PP2]
[2]
  G6B-b tyrosine phosphorylation: reduced the G6B-b tyrosine phosphorylation in response to CRP
  state of G6B-b phosphorylation: non-phosphorylation

## SHP-1: SHP-1 (N+C)SH2 domains, recombinant
[3]; tandem SH2 domains 0.1 nM
  Koff: 0.0104 s⁻¹
  Kd: 43.3 nM
[3]; tandem SH2 domains 1 nM
  Koff: 0.01106 s⁻¹
  Kd: 42.5 nM
[3]; tandem SH2 domains 10 nM
  Koff: 0.01141 s⁻¹
  Kd: 20.3 nM
[3]; tandem SH2 domains 100 nM
  Koff: 0.01025 s⁻¹
  Kd: 32 nM
[3]; tandem SH2 domains 1000 nM
  Koff: 0.00892 s⁻¹
Endogenous G6B-b
  isolation of endogenous G6B-b: able to isolate endogenous G6B-b from platelet lysate

## PLVKTEPQRPVKEEEPKIPGDLDQEPSLL[pY]ADLDHLALSRPRRLSTADPADASTIYAVVV [pY211]
[1]; equilibrium binding, single site fitting, read-out: KD
  Kd: 110 nM

## collagen [reference compound]
[4]
  EC50 of collagen, vehicle control platelets: 0.4 µg/mL

## pervanadate
[2]
  state of G6B-b phosphorylation: maximal phosphorylation

## collagen-related peptide [CRP, reference compound]
[5]
  EC50 of CRP, vehicle control platelets: 0.4 µg/mL

## Nc1ncnc2c1cnn2-c1ccccc1 [PP3]
[2]
  G6B-b tyrosine phosphorylation: no effect on tyrosine phosphorylation
  state of G6B-b phosphorylation: partial/sub-maximal

## SHP-2: SHP-2 (N+C)SH2 domains, recombinant
[3]; SPR, dual phosphopeptide
  fold higher binding affinity of SHP-2 tandem SH2 domains than single N(SH2) domain: approximately 200 fold
[3]; tandem SH2 domains 0.1 nM
  Koff: 0.0720 s⁻¹
  Kd: 0.474 nM
[3]; tandem SH2 domains 1 nM
  Koff: 0.1660 s⁻¹
  Kd: 0.624 nM
[3]; tandem SH2 domains 10 nM
  Koff: 0.0206 s⁻¹
  Kd: 0.145 nM
[3]; tandem SH2 domains 100 nM
  Koff: 0.0144 s⁻¹
  Kd: 0.528 nM
[3]; tandem SH2 domains 1000 nM
  Koff: 0.0106 s⁻¹
  Kd: 0.634 nM
Endogenous G6B-b
  isolation of endogenous G6B-b: able to isolate G6B-b from platelet lysate

From publication PMC3501490 (PLoS ONE, 2012)
